Measured values: patent publication US11542311B2, “Fusion protein, preparation method therefor and application thereof in preparing ophthalmic disease treatment, anti-inflammation and anti-tumor medicament” (JIANGSU RONGTAI BIOTECH CO., LTD., priority 2017, dated 2023)

Experiments:
[1] = test system: mouse spleen lymphocytes; test: Proliferation of mouse spleen lymphocytes (ConA, MTT); format: cell-based; details: 20 μg/mL, 48 h
Experimental: Tris-NH4Cl was used to break the red blood cells, which were allowed to stand in an ice water bath for 4 min and centrifuged (1000 rpm, 5 min), the supernatant was discarded, and the cells were washed twice with sterile PBS.
The cells were statically cultured in a cell incubator at 37° C. for 48 h. After the completion of the culture, 20 μL of MTT was added to each well, and the culture was continued for 4 h. Finally, all the solutions in each well were discarded, 100 μL of DMSO was added to each well, and the mixture was shaken and detected by a microplate reader for OD value at 570 nm. 5 parallels were preformed for per well.

[2] = test system: IL-1β production by mouse peritoneal macrophages; test: IL-1β production by mouse peritoneal macrophages (ELISA); format: cell-based; details: 20 μg/mL, 48 h
Experimental: (1) IL-1β production: mice were intraperitoneally injected with 1 mL of broth medium containing 6% starch, and three days later, the mouse peritoneal macrophages were aseptically taken, washed twice with a 1640 medium, adjusted to the cell concentration of 2×10^6 cells/mL, inoculated into a 24-well culture plate, 1 mL/well, incubated for 3 h in a cell culture incubator, and shaken once every 30 min, so that the cells were allowed to adhere sufficiently. Then, the cells were washed twice with a culture liquid to remove un-adhered cells. […] After administration, the culture was continued for 48 h, the cells were centrifuged at 1000 r/min for 15 min. The supernatant was taken as a sample for testing activity of IL-1β.
(2) Determination of IL-1β content: the detection was performed by using mouse IL-1β enzyme-linked immunosorbent assay kit from R&D company. […]

[3] = test system: peritoneal capillary permeability in mice; test: Peritoneal capillary permeability in mice (Evans blue, HAc); format: in vivo, Kunming mice; details: 10 mg/kg by injection
Experimental: The drug was administered once by injection every 5 days, and the blank model group was given an equal volume of physiological saline for 5 days and fed normally. On the 5th day after the administration, a 5 g/L of Evans blue physiological saline solution was injected into the tail vein at […], followed by intraperitoneal injection ([…]) HAc solution (6 mL/L) to induce inflammation. After 20 min, the mice were sacrificed by cervical dislocation. 5 mL of physiological saline was intraperitoneally injected, the abdomen was gently rubbed for 2 min, the abdominal cavity was cut, a peritoneal washing solution was collected and centrifuged at 4000 rpm for 10 min, 1 mL of supernatant was taken, and 3 mL of physiological saline was added to obtain a 4 mL of dilution. The absorbance OD value of the dilution was measured by an ultraviolet spectrophotometer at a wavelength of 590 nm, and the amount of pigment exudation was expressed by the OD590 nm value, and peritoneal capillary permeability in mice was examined.

[4] = test system: toe swelling in rat induced by carrageenan; test: Acute inflammation of toe swelling in rat induced by carrageenan; format: in vivo, SD rats; details: 10 mg/kg
Experimental: 80 SD rats were randomly divided into 8 groups with 10 mice for each group. […] The drug was administered once by injection every 5 days, and the model group was given an equal volume of physiological saline for 3 days and fed normally. On the third day after the administration, 0.1 mL of 1% carrageenan was injected subcutaneously into the right hind toes of the rats to induce inflammation. The foot volume was measured at 1 h, 3 h, 5 h, and 7 h after inflammation. The swelling degree of the foot was calculated according to the following formula: the swelling degree of the foot (mL)=the volume of the foot after inflammation−the volume before inflammation. The number of milliliters of spilled liquid was recorded (method: the protruding point of the right joint was circled with a ballpoint pen and used as a measurement mark, and the right hind feet of the rats were sequentially placed in the volume measuring device, so that the hind limbs were exposed outside the cylinder, and the depth of the immersion was limited to the overlap of the circle and the liquid level. After the foot entered the liquid, the liquid level was raised, and the volume of the spilled liquid was the volume of the right hind foot of the rat, and the normal volume of the right hind foot of each mouse is sequentially determined).

[5] = test system: human retinal vascular endothelial cell (HRCEC); test: MTT assay, proliferation of human retinal vascular endothelial cell (HRCEC); format: cell-based; details: 5 μg/mL, 48 h
Experimental: The activity of the integrin blocker polypeptide to inhibit proliferation of human retinal vascular endothelial cells was examined by MTT assay. HRCEC cells were cultured in a 5% CO2 incubator at 37° C. to a density of 90% or more, and then collected by trypsinization. The cells were resuspended in the culture liquid and counted under a microscope. The cell concentration was adjusted to 3.0×10^4 cells/mL. The cell suspension was inoculated into a 96-well plate, 100 μL per well, and cultured overnight in a 5% CO2 incubator at 37° C. […] After the cells were fully adhered, each dilution was added to a 96-well plate, 100 μL per well, respectively. […] 20 μL of 5 mg/mL MTT was added to each well of a 96-well plate, and incubation was continued for 4 hours. The medium was aspirated and 100 μL of DMSO was added per well for dissolution. The absorbance was measured at 570 nm with a microplate reader with a reference wavelength of 630 nm, and the proliferation inhibition (PI) was calculated. The formula was as follows: […]
where Ntest is the OD value of the test group and Ncontrol is the OD value of the blank control group.
The test was repeated 5 times independently. The results obtained from the test were calculated as mean±SD, and statistical t-test was performed. P<0.05 was considered as a significant difference, and P<0.01 was considered as an extremely significant difference.

[6] = test system: angiogenesis of chicken embryo chorioallantoic membrane; test: Chicken embryo chorioallantoic membrane (CAM) angiogenesis assay; format: in vivo, White Leghorn chicken embryos; details: 10 μg, 72 hours
Experimental: The study has shown that the biosynthesis rate of collagen reached the maximum on the 8th to 11th day of chicken embryo development, which was the most vigorous stage of angiogenesis, and the body's immune system had not yet been fully established at that time, and thus the chicken embryos developed to the 8th day was selected to be administered. […] The following steps were used:
(1) The White Leghorn chicken embryos on day 6 were cultured in a 37° C. incubator at 60%-70% humidity for two days.
(2) A 1.0 cm×1.0 cm window was drilled above the chicken embryo air sac, and the inner membrane was torn off with forceps to expose the chorioallantoic membrane. Lens paper having a diameter of 5 mm was used as a loading carrier, and was placed on the chorioallantoic membrane of the chicken embryo air sac. […]
(3) The chicken embryo air sac was sealed with a sterile transparent tape, and after culturing at 37° C. for 72 hours, the chicken embryo air sac was opened, and a fixative (formaldehyde:acetone=1:1) was added for fixation for 15 minutes. The chorioallantoic membrane to which the lens paper was adhered was taken out, the distribution of the new blood vessels was observed, and the new blood vessels were counted and photographed. Five replicates were set for each dose and the results were statistically analyzed.

Question: `C[C@@H]1C[C@H]2[C@@H]3CCC4=CC(=O)C=C[C@]4(C)[C@@]3(F)[C@@H](O)C[C@]2(C)[C@@]1(O)C(=O)CO` [Dex, dexamethasone, reference compound] was tested. Which “A570 nm/A630 nm” value [1] did it give?
Answer: 0.3468 ± 0.1144

Question: What about the “PI (%)” value [1] of the same compound?
Answer: 41.11%

Question: And the “IL-1β” value [2]?
Answer: 322.46 ± 20.56 pg/mL

Question: What about the “PI (%)” value ([2]; IL-1β) of the same compound?
Answer: 61.38%

Question: What about the “Exudation rate (OD590)” value [3] of the same compound?
Answer: 0.27 ± 0.03

Question: What about the “Swelling degree” value ([4]; 1 h after carrageenan) of the same compound?
Answer: 0.21 ± 0.11 mL

Question: And the “Swelling degree” value ([4]; 3 h after carrageenan)?
Answer: 0.26 ± 0.10 mL

Question: What about the “Swelling degree” value ([4]; 5 h after carrageenan) of the same compound?
Answer: 0.26 ± 0.11 mL

Question: And the “Swelling degree” value ([4]; 7 h after carrageenan)?
Answer: 0.25 ± 0.09 mL

Question: “bevacizumab [Avastin ®, reference compound]” was tested. Which “A570 nm/A630 nm” value [5] did it give?
Answer: 0.4544

Question: What about the Blood vessel number [6] of the same compound?
Answer: 63 ± 17
